Results from the supplement of paper PMC6335503.
± gives the standard deviation of the averaged measurements.

Assays:
Experiment in all cases: cell viability, percent of DMSO control (CellTiter-Glo); higher = more viable cells
Details in all cases: 72 h
[1] = system: DFTD cell line T3 (06/0368)
Method: (§1)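 Eight-point dose titration of 41 screen hits in triplicate wells on four Tasmanian devil DFTD tumour cell lines (T1-T4) and devil fibroblasts, 384-well plates. Viability was read by CellTiter-Glo (ATP) after 72 h at 37 °C. Percent of control per plate: DMSO wells = 100%, positive-control wells = 0%.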

[2] = system: DFTD cell line T1 (06/2887)
Method: as §1

[3] = system: DFTD cell line T4 (07/0192)
Method: as §1

[4] = system: DFTD cell line T2 (05/2569)
Method: as §1

| Structure (SMILES) | cell viability ([1]; 0.00617 µM) [%] | cell viability ([1]; 0.0185 µM) [%] | cell viability ([1]; 0.0556 µM) [%] | cell viability ([1]; 0.166667 µM) [%] | cell viability ([1]; 0.5 µM) [%] | cell viability ([1]; 1.5 µM) [%] | cell viability ([1]; 4.5 µM) [%] | cell viability ([1]; 13.5 µM) [%] | cell viability ([2]; 0.00617 µM) [%] | cell viability ([2]; 0.0185 µM) [%] | cell viability ([2]; 0.0556 µM) [%] | cell viability ([2]; 0.166667 µM) [%] | cell viability ([2]; 0.5 µM) [%] | cell viability ([2]; 1.5 µM) [%] | cell viability ([2]; 4.5 µM) [%] | cell viability ([2]; 13.5 µM) [%] | cell viability ([3]; 0.00617 µM) [%] | cell viability ([3]; 0.0185 µM) [%] | cell viability ([3]; 0.0556 µM) [%] | cell viability ([3]; 0.166667 µM) [%] | cell viability ([3]; 0.5 µM) [%] | cell viability ([3]; 1.5 µM) [%] | cell viability ([3]; 4.5 µM) [%] | cell viability ([3]; 13.5 µM) [%] | cell viability ([4]; 0.00617 µM) [%] | cell viability ([4]; 0.0185 µM) [%] | cell viability ([4]; 0.0556 µM) [%] | cell viability ([4]; 0.166667 µM) [%] | cell viability ([4]; 0.5 µM) [%] | cell viability ([4]; 1.5 µM) [%] | cell viability ([4]; 4.5 µM) [%] | cell viability ([4]; 13.5 µM) [%] |
| --- | --- | --- | --- | --- | --- | --- | --- | --- | --- | --- | --- | --- | --- | --- | --- | --- | --- | --- | --- | --- | --- | --- | --- | --- | --- | --- | --- | --- | --- | --- | --- | --- |
| Cn1nc(-c2ccccn2)nc2c(=O)n(C)c(=O)nc1-2 | 117 ± 31 | 94.9 ± 27 | 119 ± 9.9 | 126 ± 16 | 107 ± 26 | 72.9 ± 4.2 | -7.67 ± 4 | -1.39 ± 4.7 | 153 ± 34 | 70.2 ± 59 | 125 ± 22 | 132 ± 5 | 135 ± 44 | 81.7 ± 2.8 | -6.25 ± 9.7 | 0.0591 ± 4.2 | 141 ± 24 | 92.9 ± 34 | 114 ± 12 | 109 ± 11 | 118 ± 31 | 74.2 ± 14 | -7.19 ± 8.8 | 0.999 ± 4.1 | 135 ± 19 | 102 ± 31 | 104 ± 19 | 124 ± 18 | 132 ± 42 | 84.5 ± 6.9 | -4.38 ± 1.7 | -0.281 ± 3.3 |
| C=CC(=O)N1CCC[C@@H](n2nc(-c3ccc(Oc4ccccc4)cc3)c3c(N)ncnc32)C1 | 120 ± 38 | 94.2 ± 29 | 95.2 ± 22 | 65.1 ± 9.7 | 38.9 ± 6.9 | 36.7 ± 11 | 34.5 ± 8.3 | 24.5 ± 11 | 112 ± 37 | 123 ± 32 | 71.6 ± 14 | 37.3 ± 6.5 | 26.6 ± 4.3 | 23.2 ± 11 | 28.6 ± 13 | 14 ± 10 | 114 ± 25 | 85 ± 27 | 79.7 ± 14 | 51.3 ± 9.8 | 22.6 ± 4.5 | 20.4 ± 12 | 21.4 ± 8.5 | 12.3 ± 8.3 | 103 ± 33 | 124 ± 36 | 83.4 ± 14 | 51.2 ± 12 | 32.3 ± 1.1 | 29.5 ± 6.4 | 30 ± 9.6 | 17.3 ± 12 |
| O=c1c(=NNc2nnn[nH]2)c(=O)c2ccccc12 | 123 ± 33 | 108 ± 57 | 105 ± 18 | 110 ± 22 | 99.8 ± 8.1 | -0.871 ± 9.3 | -0.369 ± 11 | -6.58 ± 12 | 111 ± 30 | 134 ± 16 | 108 ± 24 | 109 ± 13 | 100 ± 8.9 | 6.85 ± 14 | -3.59 ± 8.9 | -9.34 ± 11 | 112 ± 34 | 109 ± 63 | 107 ± 15 | 113 ± 5.9 | 99.9 ± 11 | -4.87 ± 8 | -0.683 ± 8.2 | -9.39 ± 10 | 114 ± 14 | 133 ± 22 | 102 ± 25 | 96.4 ± 15 | 89.2 ± 11 | 1.91 ± 9.7 | -2.74 ± 7.9 | -6.89 ± 10 |
| CCN1CCN(Cc2ccc(-c3cc4c(N[C@H](C)c5ccccc5)ncnc4[nH]3)cc2)CC1 [AEE788] | 93.5 ± 15 | 110 ± 21 | 123 ± 27 | 77.2 ± 11 | 49.8 ± 13 | 34.2 ± 11 | 36.4 ± 13 | 28.6 ± 4.9 | 77.9 ± 22 | 87.5 ± 17 | 119 ± 44 | 61.2 ± 11 | 35.4 ± 11 | 23.9 ± 7.3 | 29.4 ± 13 | 17.5 ± 3.5 | 99.1 ± 11 | 90 ± 14 | 104 ± 35 | 83.8 ± 10 | 43.4 ± 4.7 | 25.1 ± 11 | 24.8 ± 12 | 23.4 ± 5.6 | 77.9 ± 14 | 96 ± 16 | 123 ± 38 | 85.2 ± 15 | 46.3 ± 12 | 25.8 ± 7.8 | 21 ± 7 | 6.37 ± 3.9 |
| COc1cc2ncnc(Nc3cccc(Cl)c3)c2cc1OC [AG-1478] | 125 ± 31 | 105 ± 3.8 | 103 ± 18 | 117 ± 16 | 83.2 ± 17 | 63.5 ± 11 | 53.2 ± 13 | 46.9 ± 9.5 | 117 ± 7.2 | 115 ± 7.9 | 106 ± 36 | 109 ± 19 | 54.7 ± 7.8 | 39.2 ± 9.1 | 32.7 ± 11 | 28.9 ± 9.3 | 119 ± 21 | 110 ± 20 | 104 ± 24 | 128 ± 18 | 89.3 ± 22 | 68.1 ± 18 | 38 ± 7 | 32.3 ± 11 | 99.4 ± 20 | 105 ± 21 | 108 ± 13 | 114 ± 12 | 81 ± 12 | 49.2 ± 11 | 40.2 ± 16 | 34 ± 5.2 |
| COc1cc2ncnc(Nc3cccc(Cl)c3F)c2cc1OC(=O)N1CCN(C)C[C@H]1C [AZD3759] | 96.2 ± 18 | 89.5 ± 4.7 | 122 ± 15 | 107 ± 34 | 76.4 ± 20 | 52.8 ± 6.2 | 37.7 ± 7 | 41.7 ± 7.3 | 96.9 ± 29 | 110 ± 19 | 113 ± 33 | 95.3 ± 21 | 59.1 ± 10 | 38.1 ± 7.5 | 22.6 ± 2.7 | 31.5 ± 6.1 | 102 ± 12 | 96.5 ± 23 | 111 ± 24 | 109 ± 10 | 78.4 ± 14 | 55 ± 5.2 | 28.7 ± 6.5 | 25 ± 3.8 | 97.6 ± 42 | 107 ± 12 | 131 ± 45 | 121 ± 35 | 81.8 ± 18 | 48.9 ± 4.4 | 22.9 ± 7.3 | 32 ± 4.3 |
| CNC(=O)CN1CCC(Oc2cc3c(Nc4cccc(Cl)c4F)ncnc3cc2OC)CC1 [AZD8931 (Sapitinib)] | 112 ± 38 | 95.2 ± 19 | 102 ± 44 | 55.9 ± 17 | 43.4 ± 17 | 29 ± 7.6 | 24.9 ± 10 | 32.6 ± 2.4 | 116 ± 38 | 104 ± 20 | 84 ± 28 | 37.9 ± 12 | 24.9 ± 7.9 | 22.8 ± 14 | 19.1 ± 16 | 21.6 ± 6.3 | 107 ± 17 | 111 ± 31 | 80.8 ± 34 | 59.7 ± 10 | 31.9 ± 5 | 20.9 ± 16 | 14 ± 10 | 8.86 ± 12 | 123 ± 62 | 111 ± 22 | 98.5 ± 55 | 62.1 ± 16 | 46.5 ± 18 | 27 ± 13 | 19.7 ± 17 | 24.2 ± 2.2 |
